We go through eleven compounds from patent US20250179059A1 (The Regents of the University of California, priority 2021, published 2025).

The target in assay [1] is T1, human BRD4 bromodomain II (Homo sapiens, UniProt O60885).
T1 construct: human BRD4 bromodomain II [based on Genbank NM_058243, residues 349-460]; host or cells: E. coli
Briefly: Bromodomain binding assay (AlphaScreen), BRD4 BDII. The essentials: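 E. coli-expressed N-terminal His6-tagged human BRD4 BDII (residues 349-460) or BDI (residues 44-170) was preincubated 30 min at room temperature with compound (10-point, 3-fold) in pH 7.5 HEPES buffer, 1% DMSO. Displacement of biotinylated tetra-acetylated H4 1-21 peptide was read by AlphaScreen, and IC50 came from curve fitting.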

Assay [2] concerns human SKM-1 acute myeloid leukemia cells. Briefly: SKM-1 antiproliferation cell-based assay (ATPlite). The following applies: Homo sapiens. Put shortly:
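Log-phase cells in RPMI 1640/15% FBS were seeded at 34722 cells/mL and exposed for 4 days to nine-concentration DMSO serial dilutions in triplicate. Viability was read as ATP luminescence (ATPlite 1step), and IC50 values came from variable-slope non-linear regression.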

Where [3] appears, read: AlphaScreen assay, Table C2, read-out: BRD4 BDII IC50.
Setting [4] is: SKM-1, 96 h, SKM-1 antiproliferation assay, 4 days, Table C2.
Where [5] appears, read: BRD4 BDII AlphaScreen assay, read-out: BRD4 BD2 IC50.
Setting [6] is: SKM-1, SKM-1 antiproliferation assay.

Where two headings read alike, the source gives them in different places. Some results are limits rather than exact numbers.

With `Cn1ccn(-c2ccc(-c3cc(F)cc(-c4ccnc(N5CC6(CNC6)C5)c4)c3O)cc2Cl)c1=O` [Example 455, 1-(3′-(2-(2,6-diazaspiro[3.3]heptan-2-yl)pyridin-4-yl)-3-chloro-5′-fluoro-2′-hydroxy-[1,1′-biphenyl]-4-yl)-3-methyl-1H-imidazol-2(3H)-one], the half-inhibitory concentration (IC50) in assay [1] (setting [3]) lay within 1 to 10 nM. In addition, the GI50 in assay [2] (setting [4]) was in the range of 30 to 300 nM.

Regarding `CC(=O)Nc1cccc(-c2cc(F)cc(-c3cccc(N4CCNCC4)c3)c2O)c1Cl` [Example 888], in assay [1] (setting [5]), the IC50 is greater than 100 nM. In addition, the 50% growth inhibitory concentration (GI50) in assay [2] (setting [6]) was in the range of 300 to 3000 nM.

As to `CC(C)N1CCN(c2cc(-c3cc(F)cc(-c4ccc(-n5ccn(C)c5=O)c(Cl)c4)c3O)ccn2)CC1` [Example 530, 1-(3-chloro-5′-fluoro-2′-hydroxy-3′-(2-(4-isopropylpiperazin-1-yl)pyridin-4-yl)-[1,1′-biphenyl]-4-yl)-3-methyl-1H-imidazol-2(3H)-one], the IC50 in assay [1] (setting [3]) was in the range of 0.01 to 1 nM. The compound further returned a 50% growth inhibitory concentration (GI50) in assay [2] (setting [4]) of 0.3 to 30 nM.

For `CCOc1cc(-c2cc(F)cc(-c3cccc(N4CCN(C(C)(C)C)CC4)c3)c2O)cc(Cl)c1-n1ccn(C)c1=O` [Example 925, 1-(3″-(4-(tert-Butyl)piperazin-1-yl)-3-chloro-5-ethoxy-5′-fluoro-2′-hydroxy-[1,1′:3′,1″-terphenyl]-4-yl)-3-methyl-1H-imidazol-2(3H)-one], in assay [1] (setting [5]), the IC50 was in the range of 10 to 100 nM. This compound also yielded a GI50 in assay [2] (setting [6]) of 30 to 300 nM.

Take `CC(=O)Nc1ccc(-c2cccc(-c3ccnc(N4CCC(O)CC4)c3)c2O)cc1F` [Example 272, N-(3-fluoro-2′-hydroxy-3′-(2-(4-hydroxypiperidin-1-yl)pyridin-4-yl)-[1,1′-biphenyl]-4-yl)acetamide]: the 50% inhibitory concentration (IC50) in assay [1] (setting [3]) fell in the range of 10 to 100 nM. The compound further had a concentration for 50% growth inhibition (GI50) in assay [2] (setting [4]) of 300 to 3000 nM.

Regarding `Cn1cc(-c2cc(F)cc(-c3ccc(-n4ccn(C)c4=O)c(Cl)c3)c2O)cc(N2CCN(C(C)(C)C)CC2)c1=O` [Example 668, 3-(4-(tert-butyl)piperazin-1-yl)-5-(3′-chloro-5-fluoro-2-hydroxy-4′-(3-methyl-2-oxo-2,3-dihydro-1H-imidazol-1-yl)-[1,1′-biphenyl]-3-yl)-1-methylpyridin-2(1H)-one], in assay [1] (setting [3]), the IC50 is 0.01 to 1 nM. This compound gave a GI50 in assay [2] (setting [4]) of 0.3 to 30 nM.

For the compound `Cn1ccn(-c2ccc(-c3cc(F)cc(-c4ccnc(N5CCC6(CCC(=O)N6)C5)c4)c3O)cc2Cl)c1=O` (stereo not shown) [Example 736, 7-(4-(3′-chloro-5-fluoro-2-hydroxy-4′-(3-methyl-2-oxo-2,3-dihydro-1H-imidazol-1-yl)-[1,1′-biphenyl]-3-yl)pyridin-2-yl)-1,7-diazaspiro[4.4]nonan-2-one], in assay [1] (setting [3]), the IC50 was 0.01 to 1 nM. In assay [2] (setting [4]), the concentration for 50% growth inhibition (GI50) lay within 0.3 to 30 nM.

For `Cn1ccn(-c2ccc(-c3cc(F)cc(-c4cc(F)cc(N5CCN(C(C)(C)C)CC5)c4)c3O)cc2Cl)c1=O` [Example 754, 1-(3″-(4-(tert-butyl)piperazin-1-yl)-3-chloro-5′,5″-difluoro-2′-hydroxy-[1,1′:3′,1″-terphenyl]-4-yl)-3-methyl-1H-imidazol-2(3H)-one], the IC50 in assay [1] (setting [3]) fell in the range of 0.01 to 1 nM. The compound further came in with a GI50 in assay [2] (setting [4]) of 0.3 to 30 nM.

As for `[2H]C([2H])([2H])n1ccn(-c2ccc(-c3cc(F)cc(-c4ccnc(N5CCNCC5=O)c4)c3O)cc2Cl)c1=O` [Example 464, 1-(4-(3′-chloro-5-fluoro-2-hydroxy-4′-(3-deuteromethyl-2-oxo-2,3-dihydro-1H-imidazol-1-yl)-[1,1′-biphenyl]-3-yl)pyridin-2-yl)piperazin-2-one], the IC50 in assay [1] (setting [3]) lay in the range of 0.01 to 1 nM. Moreover, the GI50 in assay [2] (setting [4]) was 30 to 300 nM.

Regarding `Cn1ccn(-c2ccc(-c3cc(F)cc(-c4ccccc4N4CCNCC4)c3O)cc2Cl)c1=O` [Example 870], in assay [1] (setting [5]), the IC50 was in the range of 1 to 10 nM. This compound gave a concentration for 50% growth inhibition (GI50) in assay [2] (setting [6]) of 300 to 3000 nM.

Consider `COc1cc(-c2cc(F)cc(-c3ccc(-n4ccn(C)c4=O)c(Cl)c3)c2O)cc(N2CCN(C(C)C)CC2)n1` [Example 702, 1-(3-chloro-5′-fluoro-2′-hydroxy-3′-(2-(4-isopropylpiperazin-1-yl)-6-methoxypyridin-4-yl)-[1,1′-biphenyl]-4-yl)-3-methyl-1H-imidazol-2(3H)-one], for which the half-inhibitory concentration (IC50) in assay [1] (setting [3]) is 0.01 to 1 nM. This compound also registered a GI50 in assay [2] (setting [4]) of 0.3 to 30 nM.
